From ChEMBL document CHEMBL2203160, “PPARγ agonist from Chromolaena odorata” (J Nat Prod, 2012)

What was measured:
PC-6 = assay: Cytotoxicity against human PC6 cells by MTT assay; type: functional, cell-based
[1] = Cytotoxicity against human U251SP cells by MTT assay; type: functional, cell-based

Work on `COc1c(O)cc2c(c1OC)C(=O)c1ccc(C)cc1C2=O` yielded an IC50 (PC-6) of 52.2 µM.

In the case of `COc1cc(O)c(C(=O)/C=C/c2ccc(O)cc2)c(OC)c1OC`, the IC50 [1] is reported as 92.7 µM.
